This note sets out measurements from US11453683B1, “KRas G12D inhibitors” (Mirati Therapeutics, Inc., priority 2019, dated 2022).

Where a name gives a salt, the structure may show the parent alone.

One may read the IC50 as the midpoint of a concentration-inhibition curve. A low value points to inhibition by little substance.

The test system of this assay is KRas G12D-mediated phosphorylation of ERK. The assay is described as follows: Inhibition of KRas G12D-mediated phosphorylation of ERK in AGS cells. The format is cell-based. The conditions noted are these: Homo sapiens; AGS cells expressing G12D, 3 hours, phospho-ERK normalized to GAPDH. The essentials:
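In-cell Western: p-ERK Thr202/Tyr204 signal over GAPDH, as % of DMSO control, with IC50 from a 4-parameter curve. AGS cells seeded 40,000/well for 12-14 h, exposed to compound 3 h at 0.5% DMSO final, then formaldehyde-fixed and methanol-permeabilized.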
In turn, `Fc1c(-c2ccccc2OC(F)(F)F)ncc2c(N3C[C@H]4CC[C@@H](C3)N4)nc(OCC34CCCN3CCC4)nc12` [Example 229, 4-((1R,5S)-3,8-diazabicyclo[3.2.1]octan-3-yl)-8-fluoro-2-((tetrahydro-1H-pyrrolizin-7a(5H)-yl)methoxy)-7-(2-(trifluoromethoxy)phenyl)pyrido[4,3-d]pyrimidine bis-hydrochloride] showed an IC50 of 11.3 µM. In the case of `Oc1cc(-c2ncc3c(N4CC5CCC(C4)N5)nc(OCC45CCCN4C[C@H](F)C5)nc3c2F)c2c(Cl)cccc2c1` (mixture of isomers) [Example 330, 4-(4-((1R,5S)-3,8-diazabicyclo[3.2.1]octan-3-yl)-8-fluoro-2-((2-fluorotetrahydro-1H-pyrrolizin-7a(5H)-yl)methoxy)pyrido[4,3-d]pyrimidin-7-yl)-5-chloronaphthalen-2-ol] it was 0.0118 µM; in that of `OCC(CO)COc1nc(N2C[C@H]3CC[C@@H](C2)N3)c2cnc(-c3cccc4cccc(Cl)c34)c(F)c2n1` [Example 35, 2-(((4-((1R,5S)-3,8-diazabicyclo[3.2.1]octan-3-yl)-7-(8-chloronaphthalen-1-yl)-8-fluoropyrido[4,3-d]pyrimidin-2-yl)oxy)methyl)propane-1,3-diol], 11.3 µM. With `C#Cc1cccc2cc(OC)cc(-c3ncc4c(N5C[C@H]6CC[C@@H](C5)N6)nc(OCC56CCCN5CCC6)nc4c3F)c12` [Example 231, 4-((1R,5S)-3,8-diazabicyclo[3.2.1]octan-3-yl)-7-(8-ethynyl-3-methoxynaphthalen-1-yl)-8-fluoro-2-((hexahydro-1H-pyrrolizin-7a-yl)methoxy)pyrido[4,3-d]pyrimidine] the figure was 2.81 µM; with `CCCc1cccc2cccc(-c3ncc4c(N5C[C@H]6CC[C@@H](C5)N6)nc(OCC56CCCN5CCC6)nc4c3F)c12` [Example 254, 4-((1R,5S)-3,8-diazabicyclo[3.2.1]octan-3-yl)-8-fluoro-2-((hexahydro-1H-pyrrolizin-7a-yl)methoxy)-7-(8-propylnaphthalen-1-yl)pyrido[4,3-d]pyrimidine], 2.43 µM; with `Nc1nc(N2CC3CCC(C2)N3)c2cnc(-c3cc(O)cc4ccccc34)c(F)c2n1` [Example 182, 4-[2-amino-4-(3,8-diazabicyclo[3.2.1]octan-3-yl)-8-fluoro-pyrido[4,3-d]pyrimidin-7-yl]naphthalen-2-ol], 13.5 µM. In the case of `Cc1c(Cl)cccc1-c1ncc2c(N3C[C@H]4CC[C@@H](C3)N4)nc(OCC34CCCN3CCC4)nc2c1F` [Example 274, 4-((1R,5S)-3,8-diazabicyclo[3.2.1]octan-3-yl)-7-(3-chloro-2-methylphenyl)-8-fluoro-2-((hexahydro-1H-pyrrolizin-7a-yl)methoxy)pyrido[4,3-d]pyrimidine] it was 4.71 µM; in that of `Cc1nccn1CCOc1nc(N2C[C@H]3C[C@@H](O)[C@@H](C2)N3)c2cnc(-c3cccc4cccc(Cl)c34)c(F)c2n1` [Example 167, (1R,5R,6R)-3-(7-(8-chloronaphthalen-1-yl)-8-fluoro-2-(2-(2-methyl-1H-imidazol-1-yl)ethoxy)pyrido[4,3-d]pyrimidin-4-yl)-3,8-diazabicyclo[3.2.1]octan-6-ol], 16.1 µM; in that of `CN1CC(COc2nc(N3C[C@H]4CC[C@@H](C3)N4)c3cnc(-c4cccc5cccc(Cl)c45)c(F)c3n2)CC1=O` (stereo partly drawn) [Example 131, 4-(((4-((1R,5S)-3,8-diazabicyclo[3.2.1]octan-3-yl)-7-(8-chloronaphthalen-1-yl)-8-fluoropyrido[4,3-d]pyrimidin-2-yl)oxy)methyl)-1-methylpyrrolidin-2-one], greater than 16.7 µM. In the case of `Cc1nccn1CCOc1nc(N2CC3CCC(C2)N3)c2cnc(-c3cc(O)cc4ccccc34)c(F)c2n1` [Example 84, 4-(4-((1R,5S)-3,8-diazabicyclo[3.2.1]octan-3-yl)-8-fluoro-2-(2-(2-methyl-1H-imidazol-1-yl)ethoxy)pyrido[4,3-d]pyrimidin-7-yl)naphthalen-2-ol], the IC50 stood at 5.72 µM.

`CN(C)c1ccccc1-c1ncc2c(N3C[C@H]4CC[C@@H](C3)N4)nc(OCC34CCCN3CCC4)nc2c1F` [Example 296, 2-(4-((1R,5S)-3,8-diazabicyclo[3.2.1]octan-3-yl)-8-fluoro-2-((hexahydro-1H-pyrrolizin-7a-yl)methoxy)pyrido[4,3-d]pyrimidin-7-yl)-N,N-dimethylaniline] showed an IC50 of 8.47 µM. With `CCc1cccc2cc(O)cc(-c3ncc4c(N5C[C@H]6CC[C@@H](C5)N6)nc(OC[C@@]56CCCN5C[C@H](F)C6)nc4c3F)c12` [Example 259, 4-(4-((1R,5S)-3,8-diazabicyclo[3.2.1]octan-3-yl)-8-fluoro-2-(((2R,7aS)-2-fluorotetrahydro-1H-pyrrolizin-7a(5H)-yl)methoxy)pyrido[4,3-d]pyrimidin-7-yl)-5-ethylnaphthalen-2-ol] the figure was 0.0039 µM; with `Oc1cc(-c2ncc3c(N4C[C@H]5CC[C@@H](C4)N5)nc(OC[C@@H]4CCCN4)nc3c2F)c2ccccc2c1` [Example 50, 4-(4-((1R,5S)-3,8-diazabicyclo[3.2.1]octan-3-yl)-8-fluoro-2-(((S)-pyrrolidin-2-yl)methoxy)pyrido[4,3-d]pyrimidin-7-yl)naphthalen-2-ol], 15.4 µM; with `Oc1cc(-c2ncc3c(N4C[C@H]5CC[C@@H](C4)N5)nc(OCC45CCCN4CCC5)nc3c2F)c2ccccc2c1` [Example 109, 4-(4-((1R,5S)-3,8-diazabicyclo[3.2.1]octan-3-yl)-8-fluoro-2-((tetrahydro-1H-pyrrolizin-7a(5H)-yl)methoxy)pyrido[4,3-d]pyrimidin-7-yl)naphthalen-2-ol bis(2,2,2-trifluoroacetate)], 0.331 µM. Consider `Fc1c(-c2cccc3cccc(OC(F)F)c23)ncc2c(N3C[C@H]4CC[C@@H](C3)N4)nc(OCC34CCCN3CCC4)nc12` [Example 346, 4-((1R,5S)-3,8-diazabicyclo[3.2.1]octan-3-yl)-7-(8-(difluoromethoxy)naphthalen-1-yl)-8-fluoro-2-((tetrahydro-1H-pyrrolizin-7a(5H)-yl)methoxy)pyrido[4,3-d]pyrimidine], for which the IC50 turned out to be 1.35 µM. Compared with the last molecule, the IC50 is about 4.1-fold higher. The molecule `Cc1ccc2cccc(-c3ncc4c(N5C[C@H]6CC[C@@H](C5)N6)nc(OC[C@@H]5CCCN5C)nc4c3F)c2c1` [Example 321, 4-((1R,5S)-3,8-diazabicyclo[3.2.1]octan-3-yl)-8-fluoro-7-(7-methylnaphthalen-1-yl)-2-(((S)-1-methylpyrrolidin-2-yl)methoxy)pyrido[4,3-d]pyrimidine] gave an IC50 greater than 16.7 µM. With `C#Cc1cccc2cccc(-c3ncc4c(N5C[C@H]6CC[C@@H](C5)N6)nc(OC[C@]56CCCN5C[C@@H](F)C6)nc4c3F)c12` [Example 205, 4-((1R,5S)-3,8-diazabicyclo[3.2.1]octan-3-yl)-7-(8-ethynylnaphthalen-1-yl)-8-fluoro-2-(((2S,7aR)-2-fluorotetrahydro-1H-pyrrolizin-7a(5H)-yl)methoxy)pyrido[4,3-d]pyrimidine] the figure was 0.242 µM; with `CNc1nc(N2CC3CCC(C2)N3)c2cnc(-c3cc(O)cc4ccccc34)c(F)c2n1` [Example 183, 4-[4-(3,8-diazabicyclo[3.2.1]octan-3-yl)-8-fluoro-2-(methylamino)pyrido[4,3-d]pyrimidin-7-yl]naphthalen-2-ol], 5.25 µM. As to `Fc1cccc(-c2ncc3c(N4C[C@H]5CC[C@@H](C4)N5)nc(OCC45CCCN4CCC5)nc3c2F)c1C1CC1` [Example 304, 4-((1R,5S)-3,8-diazabicyclo[3.2.1]octan-3-yl)-7-(2-cyclopropyl-3-fluorophenyl)-8-fluoro-2-((hexahydro-1H-pyrrolizin-7a-yl)methoxy)pyrido[4,3-d]pyrimidine], the IC50 came out at 1.42 µM.

As for `COCCNC(=O)O[C@@H]1C[C@@H](COc2nc(N3C[C@H]4CC[C@@H](C3)N4)c3cnc(-c4cccc5cccc(Cl)c45)c(F)c3n2)N(C)C1` [Example 280, (3R,5S)-5-(((4-((1R,5S)-3,8-diazabicyclo[3.2.1]octan-3-yl)-7-(8-chloronaphthalen-1-yl)-8-fluoropyrido[4,3-d]pyrimidin-2-yl)oxy)methyl)-1-methylpyrrolidin-3-yl (2-methoxyethyl)carbamate], the midpoint of inhibition, the IC50, lay at 6.12 µM. With `CCC#Cc1cccc2cccc(-c3ncc4c(N5C[C@H]6CC[C@@H](C5)N6)nc(OCC56CCCN5CCC6)nc4c3F)c12` [Example 242, 4-((1R,5S)-3,8-diazabicyclo[3.2.1]octan-3-yl)-7-(8-(but-1-yn-1-yl)naphthalen-1-yl)-8-fluoro-2-((tetrahydro-1H-pyrrolizin-7a(5H)-yl)methoxy)pyrido[4,3-d]pyrimidine] the figure was greater than 16.7 µM. With `Oc1cc(-c2ncc3c(N4C[C@H]5CC[C@@H](C4)N5)nc(OCC45CCCN4C(CF)CC5)nc3c2F)c2c(Cl)cccc2c1` (stereo partly drawn) [Example 400, 4-(4-((1R,5S)-3,8-diazabicyclo[3.2.1]octan-3-yl)-8-fluoro-2-((3-(fluoromethyl)tetrahydro-1H-pyrrolizin-7a(5H)-yl)methoxy)pyrido[4,3-d]pyrimidin-7-yl)-5-chloronaphthalen-2-ol] the figure was 0.261 µM; with `Oc1cc(-c2ncc3c(N4C[C@H]5CC[C@@H](C4)N5)nc(OC[C@@]45CCCN4C[C@H](F)C5)nc3c2F)c2c(F)cccc2c1` [Example 282, 4-(4-((1R,5S)-3,8-diazabicyclo[3.2.1]octan-3-yl)-8-fluoro-2-(((2R,7aS)-2-fluorohexahydro-1H-pyrrolizin-7a-yl)methoxy)pyrido[4,3-d]pyrimidin-7-yl)-5-fluoronaphthalen-2-ol], 0.0049 µM. `Cc1ccc(O)cc1-c1ncc2c(N3C[C@H]4CC[C@@H](C3)N4)nc(OCC34CCCN3CCC4)nc2c1F` [Example 256, 3-(4-((1R,5S)-3,8-diazabicyclo[3.2.1]octan-3-yl)-8-fluoro-2-((hexahydro-1H-pyrrolizin-7a-yl)methoxy)pyrido[4,3-d]pyrimidin-7-yl)-4-methylphenol] yielded an IC50 greater than 16.7 µM.
